Laboratory results published in ChEMBL document CHEMBL3994622, “Design and synthesis of new RAF kinase-inhibiting antiproliferative quinoline derivatives. Part 2: Diarylurea derivatives” (Eur J Med Chem, 2017).

Key:
Type in all cases: functional
IGROV-1 = test: Growth inhibition of human IGROV1 cells assessed as cell growth at 10 uM incubated for 48 hrs by sulforhodamine B assay relative to control; conditions: IGROV-1, 48 h, read-out: Activity
NCI-H322M [1] = test: Growth inhibition of human NCI-H322M cells assessed as cell growth at 0.1 uM incubated for 48 hrs by sulforhodamine B assay relative to control; conditions: read-out: Activity
M14 [2] = test: Growth inhibition of human M14 cells assessed as cell growth at 0.01 uM incubated for 48 hrs by sulforhodamine B assay relative to control; conditions: M14, 48 h, read-out: Activity
SR = test: Growth inhibition of human SR cells assessed as cell growth at 100 uM incubated for 48 hrs by sulforhodamine B assay relative to control; conditions: read-out: Activity
SNB-75 = test: Growth inhibition of human SNB75 cells assessed as cell growth at 0.1 uM incubated for 48 hrs by sulforhodamine B assay relative to control; conditions: SNB-75, 48 h, read-out: Activity
Hs-578T = test: Growth inhibition of human Hs 578T cells assessed as cell growth at 0.1 uM incubated for 48 hrs by sulforhodamine B assay relative to control; conditions: read-out: Activity
MCF7 = test: Growth inhibition of human MCF7 cells assessed as cell growth at 10 uM incubated for 48 hrs by sulforhodamine B assay relative to control; conditions: MCF7, 48 h, read-out: Activity
M14 [3] = test: Growth inhibition of human M14 cells assessed as cell growth at 0.1 uM incubated for 48 hrs by sulforhodamine B assay relative to control; conditions: M14, 48 h, read-out: Activity
NCI-H460 = test: Growth inhibition of human NCI-H460 cells assessed as cell growth at 100 uM incubated for 48 hrs by sulforhodamine B assay relative to control; conditions: NCI-H460, 48 h, read-out: Activity
NCI-H322M [4] = test: Growth inhibition of human NCI-H322M cells assessed as cell growth at 1 uM incubated for 48 hrs by sulforhodamine B assay relative to control; conditions: read-out: Activity
MDA-MB-435 = test: Growth inhibition of human MDA-MB-435 cells assessed as cell growth at 10 uM incubated for 48 hrs by sulforhodamine B assay relative to control; conditions: MDA-MB-435, 48 h, read-out: Activity
SK-OV-3 [5] = test: Growth inhibition of human SKOV3 cells assessed as cell growth at 10 uM incubated for 48 hrs by sulforhodamine B assay relative to control; conditions: SK-OV-3, 48 h, read-out: Activity
UACC-257 = test: Growth inhibition of human UACC257 cells assessed as cell growth at 0.01 uM incubated for 48 hrs by sulforhodamine B assay relative to control; conditions: UACC-257, 48 h, read-out: Activity
HOP-92 = test: Growth inhibition of human HOP92 cells assessed as cell growth at 0.03 uM incubated for 48 hrs by sulforhodamine B assay relative to control; conditions: HOP-92, 48 h, read-out: Activity
MOLT-4 = test: Growth inhibition of human MOLT4 cells assessed as cell growth at 30 uM incubated for 48 hrs by sulforhodamine B assay relative to control; conditions: MOLT-4, 48 h, read-out: Activity
SK-MEL-5 = test: Growth inhibition of human SK-MEL-5 cells assessed as cell growth at 0.3 uM incubated for 48 hrs by sulforhodamine B assay relative to control; conditions: SK-MEL-5, 48 h, read-out: Activity
RPMI-8226 = test: Growth inhibition of human RPMI8226 cells assessed as cell growth at 3 uM incubated for 48 hrs by sulforhodamine B assay relative to control; conditions: RPMI-8226, 48 h, read-out: Activity
HCT-116 = test: Growth inhibition of human HCT116 cells assessed as cell growth at 0.3 uM incubated for 48 hrs by sulforhodamine B assay relative to control; conditions: HCT-116, 48 h, read-out: Activity
NCI-H322M [6] = test: Growth inhibition of human NCI-H322M cells assessed as cell growth at 0.003 uM incubated for 48 hrs by sulforhodamine B assay relative to control; conditions: read-out: Activity
U-251 = test: Growth inhibition of human U251 cells assessed as cell growth at 0.03 uM incubated for 48 hrs by sulforhodamine B assay relative to control; conditions: U-251, 48 h, read-out: Activity
SF-268 = test: Growth inhibition of human SF268 cells assessed as cell growth at 30 uM incubated for 48 hrs by sulforhodamine B assay relative to control; conditions: SF-268, 48 h, read-out: Activity
OVCAR-5 [7] = test: Growth inhibition of human OVCAR5 cells assessed as cell growth at 0.003 uM incubated for 48 hrs by sulforhodamine B assay relative to control; conditions: OVCAR-5, 48 h, read-out: Activity
T47D = test: Growth inhibition of human T47D cells assessed as cell growth at 0.3 uM incubated for 48 hrs by sulforhodamine B assay relative to control; conditions: read-out: Activity
ACHN [8] = test: Growth inhibition of human ACHN cells assessed as cell growth at 0.003 uM incubated for 48 hrs by sulforhodamine B assay relative to control; conditions: read-out: Activity
SK-OV-3 [9] = test: Growth inhibition of human SKOV3 cells assessed as cell growth at 30 uM incubated for 48 hrs by sulforhodamine B assay relative to control; conditions: SK-OV-3, 48 h, read-out: Activity
SF-539 = test: Growth inhibition of human SF539 cells assessed as cell growth at 0.03 uM incubated for 48 hrs by sulforhodamine B assay relative to control; conditions: SF-539, 48 h, read-out: Activity
BT-549 [10] = test: Growth inhibition of human BT549 cells assessed as cell growth at 0.03 uM incubated for 48 hrs by sulforhodamine B assay relative to control; conditions: BT-549, 48 h, read-out: Activity
DU-145 = test: Growth inhibition of human DU145 cells assessed as cell growth at 30 uM incubated for 48 hrs by sulforhodamine B assay relative to control; conditions: DU-145, 48 h, read-out: Activity
HL-60(TB) = test: Growth inhibition of human HL-60(TB) cells assessed as cell growth at 30 uM incubated for 48 hrs by sulforhodamine B assay relative to control; conditions: HL-60, 48 h, read-out: Activity
OVCAR-5 [11] = test: Growth inhibition of human OVCAR5 cells assessed as cell growth at 3 uM incubated for 48 hrs by sulforhodamine B assay relative to control; conditions: OVCAR-5, 48 h, read-out: Activity
BT-549 [12] = test: Growth inhibition of human BT549 cells assessed as cell growth at 0.3 uM incubated for 48 hrs by sulforhodamine B assay relative to control; conditions: BT-549, 48 h, read-out: Activity
ACHN [13] = test: Growth inhibition of human ACHN cells assessed as cell growth at 3 uM incubated for 48 hrs by sulforhodamine B assay relative to control; conditions: read-out: Activity
ACHN [14] = test: Growth inhibition of human ACHN cells assessed as cell growth at 30 uM incubated for 48 hrs by sulforhodamine B assay relative to control; conditions: read-out: Activity
Malme-3M = test: Growth inhibition of human MALME-3M cells assessed as cell growth at 3 uM incubated for 48 hrs by sulforhodamine B assay relative to control; conditions: read-out: Activity
K562 = test: Growth inhibition of human K562 cells assessed as cell growth at 30 uM incubated for 48 hrs by sulforhodamine B assay relative to control; conditions: K562, 48 h, read-out: Activity

## COc1cc2cc(Oc3ccc(NC(=O)Nc4cc(C(F)(F)F)cc(C(F)(F)F)c4)cc3)c(C)nc2cc1OC
IGROV-1
  growth at 10 µM: -55%
NCI-H322M [1]
  growth at 0.1 µM: 90%
M14 [2]
  growth at 0.01 µM: 92%
SR
  growth at 100 µM: -19%
SNB-75
  growth at 0.1 µM: 74%
Hs-578T
  growth at 0.1 µM: 109%
MCF7
  growth at 10 µM: -59%
M14 [3]
  growth at 0.1 µM: 97%
NCI-H460
  growth at 100 µM: -73%
NCI-H322M [4]
  growth at 1 µM: 59%
MDA-MB-435
  growth at 10 µM: -49%
SK-OV-3 [5]
  growth at 10 µM: -75%
UACC-257
  growth at 0.01 µM: 104%

## Cc1nc2cc(O)c(O)cc2cc1Oc1ccc(NC(=O)Nc2ccc(Cl)c(Cl)c2)cc1
HOP-92
  growth at 0.03 µM: 80%
MOLT-4
  growth at 30 µM: 2%
SK-MEL-5
  growth at 0.3 µM: 97%
RPMI-8226
  growth at 3 µM: 92%
HCT-116
  growth at 0.3 µM: 90%
NCI-H322M [6]
  growth at 0.003 µM: 103%
U-251
  growth at 0.03 µM: 94%
SF-268
  growth at 30 µM: 1%
OVCAR-5 [7]
  growth at 0.003 µM: 102%
T47D
  growth at 0.3 µM: 101%
ACHN [8]
  growth at 0.003 µM: 103%
SK-OV-3 [9]
  growth at 30 µM: 7%
SF-539
  growth at 0.03 µM: 105%
BT-549 [10]
  growth at 0.03 µM: 94%
DU-145
  growth at 30 µM: -10%
HL-60(TB)
  growth at 30 µM: -20%
OVCAR-5 [11]
  growth at 3 µM: 119%
BT-549 [12]
  growth at 0.3 µM: 92%
ACHN [13]
  growth at 3 µM: 51%
ACHN [14]
  growth at 30 µM: -18%
Malme-3M
  growth at 3 µM: 94%
K562
  growth at 30 µM: -3%

## COc1cc2cc(Oc3ccc(NC(=O)Nc4ccc(Cl)c(Cl)c4)cc3)c(C)nc2cc1OC
IGROV-1
  growth at 10 µM: 30%
NCI-H322M [1]
  growth at 0.1 µM: 103%
M14 [2]
  growth at 0.01 µM: 84%
SR
  growth at 100 µM: -48%
SNB-75
  growth at 0.1 µM: 75%
Hs-578T
  growth at 0.1 µM: 99%
MCF7
  growth at 10 µM: 8%
M14 [3]
  growth at 0.1 µM: 97%
NCI-H460
  growth at 100 µM: -76%
NCI-H322M [4]
  growth at 1 µM: 102%
MDA-MB-435
  growth at 10 µM: 13%
SK-OV-3 [5]
  growth at 10 µM: 41%
UACC-257
  growth at 0.01 µM: 97%

## COc1cc2cc(Oc3ccc(NC(=O)Nc4ccc(Cl)c(C(F)(F)F)c4)cc3)c(C)nc2cc1OC
HOP-92
  growth at 0.03 µM: 89%
MOLT-4
  growth at 30 µM: -36%
SK-MEL-5
  growth at 0.3 µM: 94%
RPMI-8226
  growth at 3 µM: -36%
HCT-116
  growth at 0.3 µM: 91%
NCI-H322M [6]
  growth at 0.003 µM: 91%
U-251
  growth at 0.03 µM: 97%
SF-268
  growth at 30 µM: -64%
OVCAR-5 [7]
  growth at 0.003 µM: 96%
T47D
  growth at 0.3 µM: 92%
ACHN [8]
  growth at 0.003 µM: 95%
SK-OV-3 [9]
  growth at 30 µM: -51%
SF-539
  growth at 0.03 µM: 100%
BT-549 [10]
  growth at 0.03 µM: 83%
DU-145
  growth at 30 µM: -70%
HL-60(TB)
  growth at 30 µM: -22%
OVCAR-5 [11]
  growth at 3 µM: 32%
BT-549 [12]
  growth at 0.3 µM: 85%
ACHN [13]
  growth at 3 µM: 8%
ACHN [14]
  growth at 30 µM: -85%
Malme-3M
  growth at 3 µM: 12%
K562
  growth at 30 µM: -60%
